Counter-ions that a name gives are not always drawn.
Assays:
[1] = target: T1, human histamine H4 receptor (Homo sapiens, UniProt Q9H3N8); assay: Evaluation of Human H4 Receptor Affinity ([3H]histamine binding); settings: inhibition constant Ki, CHO-K1 membrane preparation, read-out: Evaluation of H4 Receptor Affinity
T1 construct: purchased PerkinElmer Inc; host or cells: CHO-K1
Experimental: Test Example 2: Evaluation of Human H4 Receptor Affinity
Membrane preparation from recombinant CHO-K1 cell expressing the human histamine H4 receptor (PerkinElmer Inc.), radiolabeled ligand 8.2 nM [^3H]histamine (PerkinElmer Inc.), and compounds dissolved in DMSO were reacted at 25° C. for 90 minutes in a buffering solution containing 50 mM tris-hydrochloric acid, pH 7.4, and 1.25 mM EDTA on a 96 well plate, followed by filtration using a GF/B filter (PerkinElmer Inc.) pretreated with 0.3% polyethylenimine. The residue was washed four times with a buffering solution of 50 mM tris-hydrochloric acid, pH 7.4. Thereafter, a scintillation cocktail (MicroScint 20: PerkinElmer Inc.) was added to the GF/B filter, and the radioactivity of each well was measured using a liquid scintillation counter for 96-well (TopCount: PerkinElmer Inc.). The non-specific binding was evaluated in the presence of 1.0 μM histamine. The inhibition constant Ki was calculated from the 50% inhibitory concentration (IC50 value) obtained in each test and the Kd value (5.7 nM) unique to this assay system, according to the Cheng-Prusoff equation.

[2] = target: human histamine H1 receptor (Homo sapiens, UniProt P35367); assay: Evaluation of Human H1 Receptor Affinity ([3H]pyrilamine binding); design: purchased PerkinElmer Inc; host or cells: CHO-K1; settings: inhibition constant Ki, CHO-K1 membrane preparation
human histamine H1 receptor, sequence (P35367 whole entry): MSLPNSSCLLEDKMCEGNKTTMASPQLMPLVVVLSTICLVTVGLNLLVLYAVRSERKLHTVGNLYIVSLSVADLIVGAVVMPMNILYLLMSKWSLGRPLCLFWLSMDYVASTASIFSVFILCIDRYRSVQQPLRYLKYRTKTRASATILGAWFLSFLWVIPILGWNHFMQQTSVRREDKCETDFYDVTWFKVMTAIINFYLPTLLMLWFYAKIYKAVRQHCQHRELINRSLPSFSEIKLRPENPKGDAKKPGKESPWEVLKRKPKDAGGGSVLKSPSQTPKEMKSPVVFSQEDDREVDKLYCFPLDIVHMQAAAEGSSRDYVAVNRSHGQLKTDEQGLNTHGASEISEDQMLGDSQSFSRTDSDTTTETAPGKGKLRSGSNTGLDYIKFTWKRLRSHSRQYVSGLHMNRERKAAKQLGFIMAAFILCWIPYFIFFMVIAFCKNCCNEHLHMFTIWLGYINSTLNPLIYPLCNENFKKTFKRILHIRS
Experimental: Test Example 1: Evaluation of Human H1 Receptor Affinity
Membrane preparation from recombinant CHO-K1 cell expressing the human histamine H1 receptor (PerkinElmer Inc.), radiolabeled ligand 1.2 nM [^3H]pyrilamine (PerkinElmer Inc.), and test compounds dissolved in DMSO were reacted at 25° C. for 3 hours in a buffering solution containing 50 mM tris-hydrochloric acid, pH 7.4, and 5 mM magnesium chloride on a 96 well plate, followed by filtration using a GF/B filter (PerkinElmer Inc.) pretreated with 0.3% polyethylenimine. The residue was washed four times with a buffering solution of 50 mM tris-hydrochloric acid, pH 7.4. Thereafter, a scintillation cocktail (MicroScint 20: PerkinElmer Inc.) was added to the GF/B filter, and the radioactivity of each well was measured using a liquid scintillation counter for 96-well (TopCount: PerkinElmer Inc.). The non-specific binding was evaluated in the presence of 1.0 μM pyrilamine. The inhibition constant Ki was calculated from the 50% inhibitory concentration (IC50 value) obtained in each test and the Kd value (1.1 nM) unique to this assay system, according to the Cheng-Prusoff equation.

Ki [1] [nM] | Ki [2] [nM] | Compound
< 100 | < 100 | Nc1nc2c(c(N3CCN(CCOC4CC5C(C4)C5C(=O)O)CC3)n1)CCc1cc(OCc3ccc(OC(F)(F)F)cc3)ccc1-2 (mixture of isomers) [Example 35, 3-(2-(4-(2-amino-8-((4-(trifluoromethoxy)benzyl)oxy)-5,6-dihydrobenzo[h]quinazolin-4-yl)piperazin-1-yl)ethoxy)bicyclo[3.1.0]hexane-6-carboxylic acid]
< 100 | < 100 | COC(=O)[C@@H]1CC[C@H](COCCN2CCN(c3nc(N)nc4c3CCc3cc(OCc5ccc(Cl)cc5)ccc3-4)CC2)C1 (relative stereo) [153(a), methyl cis-3-((2-(4-(2-amino-8-((4-chlorobenzyl)oxy)-5,6-dihydrobenzo[h]quinazolin-4-yl)piperazin-1-yl)ethoxy)methyl)cyclopentane-l-carboxylate]
< 100 | < 100 | Nc1nc2c(c(N3CCN(CCOC[C@H]4CC[C@@H](C(=O)O)C4)CC3)n1)CCc1cc(OCc3ccc(Cl)cc3)ccc1-2 (relative stereo) [153(b), cis-3-((2-(4-(2-amino-8-((4-chlorobenzyl)oxy)-5,6-dihydrobenzo[h]quinazolin-4-yl)piperazin-1-yl)ethoxy)methyl)cyclopentane-l-carboxylic acid]
< 100 | < 100 | Nc1nc2c(c(N3CCN(CCOC[C@H]4CC[C@@H](C(=O)O)C4)CC3)n1)CCc1cc(OCc3ccc(OC(F)(F)F)cc3)ccc1-2 (relative stereo) [Example 155]
100 to 500 | < 100 | Nc1nc2c(c(N3CCN(CCOC[C@@H]4CC[C@H](C(=O)O)O4)CC3)n1)CCc1cc(OCc3ccc(Cl)cc3)ccc1-2 (relative stereo) [Example 171, cis-5-((2-(4-(2-amino-8-((4-chlorobenzyl)oxy)-5,6-dihydrobenzo[h]quinazolin-4-yl)piperazin-1-yl)ethoxy)methyl)tetrahydrofuran-2-carboxylic acid]
100 to 500 | < 100 | Nc1nc2c(c(N3CCN(CCOC[C@H]4C[C@@H](C(=O)O)O4)CC3)n1)CCc1cc(OCc3ccc(OC(F)(F)F)cc3)ccc1-2 (relative stereo) [Example 176]
100 to 500 | < 100 | Nc1nc2c(c(N3CCN(CCOC[C@H]4C[C@H](C(=O)O)O4)CC3)n1)CCc1cc(OCc3ccc(OC(F)(F)F)cc3)ccc1-2 (relative stereo) [Example 177, trans-4-((2-(4-(2-amino-8-((4-(trifluoromethoxy)benzyl)oxy)-5,6-dihydrobenzo[h]quinazolin-4-yl)piperazin-1-yl)ethoxy)methyl)oxetane-2-carboxylic acid]
< 100 | < 100 | Nc1nc2c(c(N3CCN(CCOC[C@@H]4CCC[C@H](C(=O)O)C4)CC3)n1)CCc1cc(OCc3ccc(OC(F)(F)F)cc3)ccc1-2 (relative stereo) [Example 186, cis-3-((2-(4-(2-amino-8-((4-(trifluoromethoxy)benzyl)oxy)-5,6-dihydrobenzo[h]quinazolin-4-yl)piperazin-1-yl)ethoxy)methyl)cyclohexane-1-carboxylic acid dihydrochloride]
< 100 | < 100 | CC(Oc1ccc2c(c1)CCc1c-2nc(N)nc1N1CCN(CCO[C@H]2C[C@@H](C(=O)O)C2)CC1)c1ccc(OC(F)(F)F)cc1 (relative stereo) [Example 209, cis-3-(2-(4-(2-amino-8-(1-(4-(trifluoromethoxy)phenyl)ethoxy)-5,6-dihydrobenzo[h]quinazolin-4-yl)piperazin-1-yl)ethoxy)cyclobutane-1-carboxylic acid]
< 100 | < 100 | COC(=O)COCCOCCN1CCN(c2nc(N)nc3c2CCc2cc(OCc4ccc(Cl)cc4)ccc2-3)CC1 [11(a), methyl 2-(2-(2-(4-(2-amino-8-((4-chlorobenzyl)oxy)-5,6-dihydrobenzo[h]quinazolin-4-yl)piperazin-1-yl)ethoxy)ethoxy)acetate]
100 to 500 | < 100 | COC(=O)c1cccc(COCCN2CCN(c3nc(N)nc4c3CCc3cc(OCc5ccc(Cl)cc5)ccc3-4)CC2)c1 [15(a), methyl 3-((2-(4-(2-amino-8-((4-chlorobenzyl)oxy)-5,6-dihydrobenzo[h]quinazolin-4-yl)piperazin-1-yl)ethoxy)methyl)benzoate]
100 to 500 | < 100 | COC(=O)c1cccc(COCCN2CCN(c3nc(N)nc4c3CCc3cc(OCc5ccc(OC(F)(F)F)cc5)ccc3-4)CC2)c1 [16(a), methyl 3-((2-(4-(2-amino-8-((4-(trifluoromethoxy)benzyl)oxy)-5,6-dihydrobenzo[h]quinazolin-4-yl)piperazin-1-yl)ethoxy)methyl)benzoate]
< 100 | < 100 | COC(=O)c1cc(COCCN2CCN(c3nc(N)nc4c3CCc3cc(OCc5ccc(Cl)cc5)ccc3-4)CC2)ccc1F [17(a), methyl 5-((2-(4-(2-amino-8-((4-chlorobenzyl)oxy)-5,6-dihydrobenzo[h]quinazolin-4-yl)piperazin-1-yl)ethoxy)methyl)-2-fluorobenzoate]
< 100 | < 100 | COC(=O)c1cccc(COCCN2CCN(c3nc(N)nc4c3CCc3cc(OCc5ccc(Cl)cc5)ccc3-4)CC2)n1 [18(a), methyl 6-((2-(4-(2-amino-8-((4-chlorobenzyl)oxy)-5,6-dihydrobenzo[h]quinazolin-4-yl)piperazin-1-yl)ethoxy)methyl)picolinate]
100 to 500 | 100 to 500 | COC(=O)c1ccc(OCCN2CCN(c3nc(N)nc4c3CCc3cc(OCc5ccc(Cl)cc5)ccc3-4)CC2)cc1 [19(a), methyl 4-(2-(4-(2-amino-8-((4-chlorobenzyl)oxy)-5,6-dihydrobenzo[h]quinazolin-4-yl)piperazin-1-yl)ethoxy)benzoate]
100 to 500 | < 100 | COC(=O)c1ccc(COCCN2CCN(c3nc(N)nc4c3CCc3cc(OCc5ccc(OC(F)(F)F)cc5)ccc3-4)CC2)o1 [20(a), methyl 5-((2-(4-(2-amino-8-((4-(trifluoromethoxy)benzyl)oxy)-5,6-dihydrobenzo[h]quinazolin-4-yl)piperazin-1-yl)ethoxy)methyl)furan-2-carboxylate]
100 to 500 | < 100 | CCOC(=O)[C@]1(C)C[C@@H](OCCN2CCN(c3nc(N)nc4c3CCc3cc(OCc5ccc(Cl)cc5)ccc3-4)CC2)C1 [25(a), ethyl trans-3-(2-(4-(2-amino-8-((4-chlorobenzyl)oxy)-5,6-dihydrobenzo[h]quinazolin-4-yl)piperazin-1-yl)ethoxy)-1-methylcyclobutane-1-carboxylate]
< 100 | < 100 | C[C@]1(C(=O)O)C[C@H](OCCN2CCN(c3nc(N)nc4c3CCc3cc(OCc5ccc(Cl)cc5)ccc3-4)CC2)C1 [25(b), trans-3-(2-(4-(2-amino-8-((4-chlorobenzyl)oxy)-5,6-dihydrobenzo[h]quinazolin-4-yl)piperazin-1-yl)ethoxy)-1-methylcyclobutane-1-carboxylic acid]
100 to 500 | < 100 | CCOC(=O)[C@]1(C)C[C@H](OCCN2CCN(c3nc(N)nc4c3CCc3cc(OCc5ccc(Cl)cc5)ccc3-4)CC2)C1 [26(a), ethyl cis-3-(2-(4-(2-amino-8-((4-chlorobenzyl)oxy)-5,6-dihydrobenzo[h]quinazolin-4-yl)piperazin-1-yl)ethoxy)-1-methylcyclobutane-1-carboxylate]
100 to 500 | < 100 | C[C@]1(C(=O)O)C[C@@H](OCCN2CCN(c3nc(N)nc4c3CCc3cc(OCc5ccc(Cl)cc5)ccc3-4)CC2)C1 [26(b), cis-3-(2-(4-(2-amino-8-((4-chlorobenzyl)oxy)-5,6-dihydrobenzo[h]quinazolin-4-yl)piperazin-1-yl)ethoxy)-1-methylcyclobutane-1-carboxylic acid]
< 100 | < 100 | Nc1nc2c(c(N3CCN(CCOCC4CNC4)CC3)n1)CCc1cc(OCc3ccc(OC(F)(F)F)cc3)ccc1-2 [38(b), 4-(4-(2-(azetidin-3-ylmethoxy)ethyl)piperazin-1-yl)-8-((4-(trifluoromethoxy)benzyl)oxy)-5,6-dihydrobenzo[h]quinazolin-2-amine]
< 100 | < 100 | COC(=O)c1ccc(COCCN2CCN(c3nc(N)nc4c3CCc3cc(OCc5ccc(Cl)cc5)ccc3-4)CC2)o1 [127(a), methyl 5-((2-(4-(2-amino-8-((4-chlorobenzyl)oxy)-5,6-dihydrobenzo[h]quinazolin-4-yl)piperazin-1-yl)ethoxy)methyl)furan-2-carboxylate]
